Experimental data as given in ChEMBL document CHEMBL5303573, “Mapping human microbiome drug metabolism by gut bacteria and their genes” (Nature, 2019).

What was measured:
[1] = The drug is tested on Subdoligranulum variabile strain: DSM15176 for biotransformation. The drug concentrations were measured before and after a 12-h incubation by liquid-chromatography-coupled mass spectrometry (LC–MS); conditions: 2 µM
[2] = The drug is tested on Blautia luti strain: DSM14534 for biotransformation. The drug concentrations were measured before and after a 12-h incubation by liquid-chromatography-coupled mass spectrometry (LC–MS); type: ADME; parameters: dose 2 uM, timepoint 0 vs 12 hours; conditions: 2 µM
[3] = bacteroides fragilis, 12 h, 2 µM
Description: The drug is tested on Bacteroides fragilis strain: DS-208 for biotransformation. The drug concentrations were measured before and after a 12-h incubation by liquid-chromatography-coupled mass spectrometry (LC–MS)

[4] = bacteroides thetaiotaomicron, 12 h, 2 µM
Description: The drug is tested on Bacteroides thetaiotaomicron strain: 3731 for biotransformation. The drug concentrations were measured before and after a 12-h incubation by liquid-chromatography-coupled mass spectrometry (LC–MS)

[5] = The drug is tested on Bacteroides xylanisolvens strain: DSM18836 for biotransformation. The drug concentrations were measured before and after a 12-h incubation by liquid-chromatography-coupled mass spectrometry (LC–MS); conditions: 2 µM
[6] = The drug is tested on Clostridium ramosum strain: DSM1402 for biotransformation. The drug concentrations were measured before and after a 12-h incubation by liquid-chromatography-coupled mass spectrometry (LC–MS); conditions: thomasclavelia ramosa, 2 µM
[7] = The drug is tested on Eubacterium ventriosum strain: ATCC27560 for biotransformation. The drug concentrations were measured before and after a 12-h incubation by liquid-chromatography-coupled mass spectrometry (LC–MS); type: ADME; parameters: dose 2 uM, timepoint 0 vs 12 hours; conditions: 2 µM
[8] = The drug is tested on Dorea formicigenerans strain: ATCC27755 for biotransformation. The drug concentrations were measured before and after a 12-h incubation by liquid-chromatography-coupled mass spectrometry (LC–MS); conditions: 2 µM
[9] = The drug is tested on Bacteroides sp. WH2 strain: WH2 for biotransformation. The drug concentrations were measured before and after a 12-h incubation by liquid-chromatography-coupled mass spectrometry (LC–MS); conditions: bacteroides sp. wh2, 12 h, 2 µM
[10] = bacteroides thetaiotaomicron, 12 h, 2 µM; remark: listed apart in the source
Description: The drug is tested on Bacteroides thetaiotaomicron strain: VPI-5482 for biotransformation. The drug concentrations were measured before and after a 12-h incubation by liquid-chromatography-coupled mass spectrometry (LC–MS)

[11] = The drug is tested on Escherichia coli strain: BW25113 for biotransformation. The drug concentrations were measured before and after a 12-h incubation by liquid-chromatography-coupled mass spectrometry (LC–MS); conditions: 2 µM
[12] = The drug is tested on Anaerotruncus colihominis strain: DSM17241 for biotransformation. The drug concentrations were measured before and after a 12-h incubation by liquid-chromatography-coupled mass spectrometry (LC–MS); conditions: 2 µM
[13] = The drug is tested on Collinsella intestinalis strain: DSM13280 for biotransformation. The drug concentrations were measured before and after a 12-h incubation by liquid-chromatography-coupled mass spectrometry (LC–MS); conditions: 2 µM
[14] = The drug is tested on Alistipes indistinctus strain: DSM22520 for biotransformation. The drug concentrations were measured before and after a 12-h incubation by liquid-chromatography-coupled mass spectrometry (LC–MS); conditions: 2 µM
[15] = The drug is tested on Edwardsiella tarda strain: ATCC23685 for biotransformation. The drug concentrations were measured before and after a 12-h incubation by liquid-chromatography-coupled mass spectrometry (LC–MS); conditions: 2 µM
[16] = The drug is tested on Bacteroides ovatus strain: ATCC8483 for biotransformation. The drug concentrations were measured before and after a 12-h incubation by liquid-chromatography-coupled mass spectrometry (LC–MS); conditions: 2 µM
[17] = bacteroides fragilis, 12 h, 2 µM; remark: listed apart in the source
Description: The drug is tested on Bacteroides fragilis strain: 3397 (T10) for biotransformation. The drug concentrations were measured before and after a 12-h incubation by liquid-chromatography-coupled mass spectrometry (LC–MS)

[18] = The drug is tested on Bacteroides pectinophilus strain: ATCC43243 for biotransformation. The drug concentrations were measured before and after a 12-h incubation by liquid-chromatography-coupled mass spectrometry (LC–MS); conditions: 2 µM
[19] = The drug is tested on Bacteroides coprophilus strain: DSM18228 for biotransformation. The drug concentrations were measured before and after a 12-h incubation by liquid-chromatography-coupled mass spectrometry (LC–MS); conditions: 2 µM
[20] = The drug is tested on Blautia hansenii strain: DSM20583 for biotransformation. The drug concentrations were measured before and after a 12-h incubation by liquid-chromatography-coupled mass spectrometry (LC–MS); conditions: 2 µM

| Structure (SMILES) | Bacterial Biotransformation [1] | Bacterial Biotransformation [2] | Bacterial Biotransformation [3] | Bacterial Biotransformation [4] | Bacterial Biotransformation [5] | Bacterial Biotransformation [6] | Bacterial Biotransformation [7] | Bacterial Biotransformation [8] | Bacterial Biotransformation [9] | Bacterial Biotransformation [10] | Bacterial Biotransformation [11] | Bacterial Biotransformation [12] | Bacterial Biotransformation [13] | Bacterial Biotransformation [14] | Bacterial Biotransformation [15] | Bacterial Biotransformation [16] | Bacterial Biotransformation [17] | Bacterial Biotransformation [18] | Bacterial Biotransformation [19] | Bacterial Biotransformation [20] |
| --- | --- | --- | --- | --- | --- | --- | --- | --- | --- | --- | --- | --- | --- | --- | --- | --- | --- | --- | --- | --- |
| CCC(COC(=O)c1cc(OC)c(OC)c(OC)c1)(c1ccccc1)N(C)C.O=C(O)/C=C\C(=O)O (stereo not given) | Compound metabolized | Compound metabolized | Compound NOT metabolized | Compound metabolized | Compound metabolized | Compound NOT metabolized | Compound metabolized | Compound metabolized | Compound metabolized | Compound metabolized | Compound metabolized | Compound metabolized | Compound metabolized | Compound metabolized | Compound metabolized | Compound metabolized | Compound metabolized | Compound metabolized | Compound metabolized | Compound metabolized |
| C[C@]12C=CC(=O)C=C1CC[C@@H]1[C@@H]2C(=O)C[C@@]2(C)[C@H]1CC[C@]2(O)C(=O)CO [PREDNISONE] | Compound NOT metabolized | Compound NOT metabolized | Compound NOT metabolized | Compound NOT metabolized | Compound NOT metabolized | Compound NOT metabolized | Compound NOT metabolized | Compound NOT metabolized | Compound NOT metabolized | Compound NOT metabolized | Compound NOT metabolized | Compound NOT metabolized | Compound NOT metabolized | Compound NOT metabolized | Compound NOT metabolized | Compound NOT metabolized | Compound NOT metabolized | Compound NOT metabolized | Compound NOT metabolized | Compound NOT metabolized |
